Experiments:
[1] = biological target: Cation-independent mannose-6-phosphate receptor (Bos taurus) (UniProt P08169); assay: Displacement of pentamannosyl phosphate bovine serum albumin from M6P/IGF2R
[2] = biological target: Cation-independent mannose-6-phosphate receptor (Bos taurus) (UniProt P08169); assay: Displacement of pentamannosyl phosphate bovine serum albumin from M6P/IGF2R relative to M6P

Chain of Cation-independent mannose-6-phosphate receptor (Bos taurus) (P08169 whole entry, looked up): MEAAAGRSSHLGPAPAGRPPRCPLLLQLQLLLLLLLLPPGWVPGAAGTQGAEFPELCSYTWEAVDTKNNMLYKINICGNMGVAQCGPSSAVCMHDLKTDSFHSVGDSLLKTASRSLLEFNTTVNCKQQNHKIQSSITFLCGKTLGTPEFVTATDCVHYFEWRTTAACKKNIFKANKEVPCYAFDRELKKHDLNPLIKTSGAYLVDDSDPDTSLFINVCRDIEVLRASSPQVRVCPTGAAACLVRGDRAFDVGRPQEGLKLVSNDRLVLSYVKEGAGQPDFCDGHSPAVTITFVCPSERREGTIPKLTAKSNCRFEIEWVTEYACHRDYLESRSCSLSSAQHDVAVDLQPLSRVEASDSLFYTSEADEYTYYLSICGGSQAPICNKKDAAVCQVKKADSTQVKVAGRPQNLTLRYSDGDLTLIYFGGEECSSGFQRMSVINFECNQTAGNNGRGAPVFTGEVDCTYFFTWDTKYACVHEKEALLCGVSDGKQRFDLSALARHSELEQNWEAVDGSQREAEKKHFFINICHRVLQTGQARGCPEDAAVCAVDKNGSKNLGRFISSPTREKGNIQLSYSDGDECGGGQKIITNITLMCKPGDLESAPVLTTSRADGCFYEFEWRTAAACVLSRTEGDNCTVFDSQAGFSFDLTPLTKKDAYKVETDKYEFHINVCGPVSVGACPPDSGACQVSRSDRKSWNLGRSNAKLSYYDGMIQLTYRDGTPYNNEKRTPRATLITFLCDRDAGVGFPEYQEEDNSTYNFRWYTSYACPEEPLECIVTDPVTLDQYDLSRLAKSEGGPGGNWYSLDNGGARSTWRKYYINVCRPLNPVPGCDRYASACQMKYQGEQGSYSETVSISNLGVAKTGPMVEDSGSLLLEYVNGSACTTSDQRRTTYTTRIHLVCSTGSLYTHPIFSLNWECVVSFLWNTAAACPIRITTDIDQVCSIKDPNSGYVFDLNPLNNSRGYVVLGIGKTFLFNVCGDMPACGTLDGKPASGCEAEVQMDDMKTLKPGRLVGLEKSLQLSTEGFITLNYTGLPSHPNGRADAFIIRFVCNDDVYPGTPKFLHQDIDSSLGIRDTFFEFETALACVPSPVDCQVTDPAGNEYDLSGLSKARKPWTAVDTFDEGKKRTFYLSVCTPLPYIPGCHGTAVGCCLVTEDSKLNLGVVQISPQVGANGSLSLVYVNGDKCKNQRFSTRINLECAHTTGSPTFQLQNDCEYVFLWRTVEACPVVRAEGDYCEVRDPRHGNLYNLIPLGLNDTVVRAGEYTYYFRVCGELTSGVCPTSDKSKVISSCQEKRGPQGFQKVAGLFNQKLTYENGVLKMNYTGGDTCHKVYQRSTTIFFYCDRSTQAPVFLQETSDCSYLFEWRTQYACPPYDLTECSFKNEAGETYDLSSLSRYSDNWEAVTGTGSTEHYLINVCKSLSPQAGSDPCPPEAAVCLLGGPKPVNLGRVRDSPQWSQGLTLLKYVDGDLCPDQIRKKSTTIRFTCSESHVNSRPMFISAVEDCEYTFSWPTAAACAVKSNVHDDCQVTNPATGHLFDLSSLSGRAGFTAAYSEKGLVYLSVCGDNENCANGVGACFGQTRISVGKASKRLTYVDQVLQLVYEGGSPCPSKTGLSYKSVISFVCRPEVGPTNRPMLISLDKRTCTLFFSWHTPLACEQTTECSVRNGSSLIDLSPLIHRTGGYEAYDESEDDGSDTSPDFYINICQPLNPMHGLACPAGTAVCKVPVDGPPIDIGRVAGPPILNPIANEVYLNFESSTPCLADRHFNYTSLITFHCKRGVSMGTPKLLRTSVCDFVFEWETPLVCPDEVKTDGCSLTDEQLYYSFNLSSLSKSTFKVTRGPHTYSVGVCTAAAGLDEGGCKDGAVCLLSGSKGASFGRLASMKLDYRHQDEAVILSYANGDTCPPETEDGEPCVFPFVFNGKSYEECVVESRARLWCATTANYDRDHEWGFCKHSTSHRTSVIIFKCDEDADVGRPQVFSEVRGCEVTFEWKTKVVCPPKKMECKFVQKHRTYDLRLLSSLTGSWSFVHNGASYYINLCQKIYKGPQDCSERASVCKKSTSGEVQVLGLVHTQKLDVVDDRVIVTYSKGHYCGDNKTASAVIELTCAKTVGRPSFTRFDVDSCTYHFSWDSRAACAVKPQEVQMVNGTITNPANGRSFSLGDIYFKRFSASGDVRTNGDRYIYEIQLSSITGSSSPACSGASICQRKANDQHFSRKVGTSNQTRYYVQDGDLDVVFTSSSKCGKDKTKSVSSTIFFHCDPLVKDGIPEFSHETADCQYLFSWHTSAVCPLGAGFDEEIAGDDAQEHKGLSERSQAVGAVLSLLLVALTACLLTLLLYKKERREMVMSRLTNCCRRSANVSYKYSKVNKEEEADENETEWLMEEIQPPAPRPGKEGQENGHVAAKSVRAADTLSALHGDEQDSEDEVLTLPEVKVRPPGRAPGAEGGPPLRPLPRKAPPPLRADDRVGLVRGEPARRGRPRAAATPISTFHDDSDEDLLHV

Compound	IC50 [1] [µM]	relative binding affinity (RBA) [2]
CC(=O)NCCCC[C@H](NC(=O)[C@@H](NC(C)=O)[C@@H](C)O[C@H]1O[C@H](CO)[C@@H](O)[C@H](O)[C@@H]1O[C@H]1O[C@H](COP(=O)(O)O)[C@@H](O)[C@H](O)[C@@H]1O)C(=O)N[C@H](C(N)=O)[C@@H](C)O[C@H]1O[C@H](CO)[C@@H](O)[C@H](O)[C@@H]1O[C@H]1O[C@H](COP(=O)(O)O)[C@@H](O)[C@H](O)[C@@H]1O	1.8	144
O=P(O)(O)OC[C@H]1O[C@H](OCCCCCCCCCCCCO[C@H]2O[C@H](COP(=O)(O)O)[C@@H](O)[C@H](O)[C@@H]2O)[C@@H](O)[C@@H](O)[C@@H]1O	3.7	3.02
O=P(O)(O)OC[C@H]1O[C@@H](O)[C@H](O)[C@@H](O)[C@@H]1O	> 10	–
CC(=O)N[C@H](C(=O)N[C@@H](CCCCN)C(=O)N[C@H](C(N)=O)[C@@H](C)O[C@H]1O[C@H](CO)[C@@H](O)[C@H](O)[C@@H]1O[C@H]1O[C@H](COP(=O)(O)O)[C@@H](O)[C@H](O)[C@@H]1O)[C@@H](C)O[C@H]1O[C@H](CO)[C@@H](O)[C@H](O)[C@@H]1O[C@H]1O[C@H](COP(=O)(O)O)[C@@H](O)[C@H](O)[C@@H]1O	20	13
CC(=O)N[C@H](C(=O)N[C@@H](CCCCNC(=O)c1ccccc1N)C(=O)N[C@H](C(N)=O)[C@@H](C)O[C@H]1O[C@H](CO)[C@@H](O)[C@H](O)[C@@H]1O[C@H]1O[C@H](COP(=O)(O)O)[C@@H](O)[C@H](O)[C@@H]1O)[C@@H](C)O[C@H]1O[C@H](CO)[C@@H](O)[C@H](O)[C@@H]1O[C@H]1O[C@H](COP(=O)(O)O)[C@@H](O)[C@H](O)[C@@H]1O	0.09	2890
O=P(O)(O)OC[C@H]1OC(O)[C@@H](O)[C@@H](O)[C@@H]1O (stereo not given in full)	11.5	–

— ChEMBL document CHEMBL1142390, “A set of phosphatase-inert "molecular rulers" to probe for bivalent mannose 6-phosphate ligand-receptor interactions” (Bioorg Med Chem Lett, 2008)
